Like-named read-outs stand apart in the source and are kept apart here.
How the values were obtained:
[1] = target: T1, PH-TH^E41K (isolated PH-TH domain of BTK, E41K mutant) (Bos taurus, UniProt Q3ZC95, E41K); experiment: Isothermal titration calorimetry, ligand binding to isolated PH-TH domain E41K mutant; details: ITC
T1 construct: amino acid residue number 4–170; His-SUMO (N, cleaved yes); made in house; host or cells: E. coli BL21-DE3
Description: (§1) The isothermal titration calorimetry experiments were performed using MicroCal ITC (GE Healthcare) and MicroCal PEAQ-ITC (Malvern). The PH-TH domain was buffer exchanged to 20 mM HEPES, 150 mM NaCl, pH 7.5. During the titration, 25 μM protein in the cell was titrated with a ligand at the protein-to-ligand ratio of 1: 5.5. All ITC titrations were performed at 20 °C. The initial injection of 0.5 μl was excluded from the data analysis. During the titration, 3 μl of ligand was injected in 13 steps, and each injection step was separated by 180 s. The protein solution was stirred at 300 rpm during the titration.

PH-TH^E41K [2] = target: T2, PH-TH^E41K (Bos taurus, UniProt Q3ZC95, E41K); experiment: Size-exclusion chromatography of PH-TH domain with ligand
T2 construct: amino acid residue number 4–170; His-SUMO (N, cleaved yes); made in house; host or cells: E. coli BL21-DE3
T2 sequence (Q3ZC95 4-170 E41K): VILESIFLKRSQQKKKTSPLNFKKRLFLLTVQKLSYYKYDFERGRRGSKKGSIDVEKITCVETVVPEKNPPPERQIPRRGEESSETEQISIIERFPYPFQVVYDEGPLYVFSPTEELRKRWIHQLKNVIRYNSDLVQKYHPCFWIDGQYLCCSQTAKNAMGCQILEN
Description: Size-exclusion chromatography of various constructs of the PH-TH domain was performed using the Superdex-200 10/300 Gl column. For the apo PH-TH domain, the column was equilibrated with running buffer (25 mM Tris-Cl, 100 mM NaCl, 1 mM DTT, pH 7.2), and 500 μl of 75 μM protein was loaded into the column, at a flow rate of 0.3 ml/min and at 8 °C. The elution profile was recorded, and the retention time of the protein was calculated. For the ligand-bound samples, the protein was mixed with ligand at a protein-to-ligand ratio of 1:4, and incubated at 4 °C for 15 min before loading into the size-exclusion column. Before loading the sample, the column was pre-equilibrated with a running buffer containing the ligand.

BTK PH-TH E41K/R28H = target: T3, BTK PH-TH E41K/R28H (Bos taurus, UniProt Q3ZC95, E41K/R28H); experiment: Isothermal titration calorimetry, IP6 binding to PH-TH E41K/R28H; details: ITC
T3 construct: amino acid residue number 4–170; His-SUMO (N, cleaved yes); made in house; host or cells: E. coli BL21-DE3
T3 sequence (Q3ZC95 4-170 R28H/E41K): as the sequence (Q3ZC95 4-170 E41K) above, with R25H counted along it
Description: as §1, with “analysis.” for “analysis. During the titration, 3 μl of ligand was injected in 13 steps, and each injection step was separated by 180 s. The protein solution was stirred at 300 rpm during the titration.”

BTK PH-TH E41K/R49S = target: T4, BTK PH-TH E41K/R49S (Bos taurus, UniProt Q3ZC95, E41K/R49S); experiment: Isothermal titration calorimetry, IP6 binding to PH-TH E41K/R49S; details: ITC
T4 construct: amino acid residue number 4–170; His-SUMO (N, cleaved yes); made in house; host or cells: E. coli BL21-DE3
T4 sequence (Q3ZC95 4-170 E41K/R49S): as the sequence (Q3ZC95 4-170 E41K) above, with R46S counted along it
Description: as §1, with “analysis.” for “analysis. During the titration, 3 μl of ligand was injected in 13 steps, and each injection step was separated by 180 s. The protein solution was stirred at 300 rpm during the titration.”

PH-TH^E41K [3] = target: T2, PH-TH^E41K; experiment: Dynamic light scattering of PH-TH domain with IP6; details: in the presence of IP6
Description: (§2) The Dynamic Light Scattering experiments were conducted using Malvern Zetasizer DLS Detectors using 1.5 ml plastic cuvettes. The samples were prepared in a buffer containing 25 mM Tris-Cl, 100 mM NaCl, 1 mM DTT, and pH 7.2. The experiment included three measurements of ten runs each. The theoretical calculations of the hydrodynamic radius of the proteins were performed using Hydropro ([51]).

[4] = target: T5, wild-type PH-TH domain of BTK (Bos taurus, UniProt Q3ZC95); experiment: Dynamic light scattering of PH-TH domain with IP6; details: IP6 bound PH-TH domain
T5 construct: amino acid residue number 4–170; His-SUMO (N, cleaved yes); made in house; host or cells: E. coli BL21-DE3
T5 sequence (Q3ZC95 4-170): as the sequence (Q3ZC95 4-170 E41K) above, with K38E counted along it
Description: as §2

PH-TH^E41K [5] = target: T2, PH-TH^E41K; experiment: Thermal denaturation by circular dichroism spectroscopy; details: at the Tm of the apo state, equimolar ligand
Description: The melting temperature of the PH-TH domain was determined from the Circular Dichroism (CD) spectrum recorded at increasing temperatures (20° to 76 °C). For each sample, the CD spectra from 300 to 190 nm were recorded using a Jasco-J1500 spectropolarimeter with a temperature increment of 4 °C. CD spectra were recorded with 5 μM protein in 20 mM Sodium phosphate buffer pH 7.4 and in the absence or in the presence of an equimolar ligand. The measured ellipticity data was converted into molar ellipticity ([39]). The ΔGUnfolding was calculated considering the simplest two-step unfolding model, where a protein exists in a folded (F) and an unfolded (U) state as described previously ([40], [41]). The fraction unfolded [U] protein at a given temperature is:(1) [U]=(θT−θF)/(θU−θF) Where, θF and θU are the molar ellipticity of the fully folded and unfolded state at 218 nm, θT is the molar ellipticity at a given temperature. Considering that at a given temperature, the sum of the unfolded and folded [F] fraction of the protein is 1, the equilibrium constant, KUnfolding is:(2) KUnfolding=[U]/1−[U] […] The ΔΔGunfolding was calculated from the difference between the ΔG of the IP6 bound ΔGholo and ΔGapo state, measured at the Tm of the corresponding apo PH-TH construct.

BTK^E41K = target: T6, BTK^E41K (Mus musculus, UniProt P35991, E41K); experiment: TIRF microscopy of membrane-bound BTK-mCherry in live CHO cells after IP6 stimulation; format: cell-based, Chinese Hamster
T6 construct: expressed in transfected cells; host or cells: CHO cells, transient transfection with pCDNA BTK-mCherry
T6 sequence (P35991 whole entry E41K): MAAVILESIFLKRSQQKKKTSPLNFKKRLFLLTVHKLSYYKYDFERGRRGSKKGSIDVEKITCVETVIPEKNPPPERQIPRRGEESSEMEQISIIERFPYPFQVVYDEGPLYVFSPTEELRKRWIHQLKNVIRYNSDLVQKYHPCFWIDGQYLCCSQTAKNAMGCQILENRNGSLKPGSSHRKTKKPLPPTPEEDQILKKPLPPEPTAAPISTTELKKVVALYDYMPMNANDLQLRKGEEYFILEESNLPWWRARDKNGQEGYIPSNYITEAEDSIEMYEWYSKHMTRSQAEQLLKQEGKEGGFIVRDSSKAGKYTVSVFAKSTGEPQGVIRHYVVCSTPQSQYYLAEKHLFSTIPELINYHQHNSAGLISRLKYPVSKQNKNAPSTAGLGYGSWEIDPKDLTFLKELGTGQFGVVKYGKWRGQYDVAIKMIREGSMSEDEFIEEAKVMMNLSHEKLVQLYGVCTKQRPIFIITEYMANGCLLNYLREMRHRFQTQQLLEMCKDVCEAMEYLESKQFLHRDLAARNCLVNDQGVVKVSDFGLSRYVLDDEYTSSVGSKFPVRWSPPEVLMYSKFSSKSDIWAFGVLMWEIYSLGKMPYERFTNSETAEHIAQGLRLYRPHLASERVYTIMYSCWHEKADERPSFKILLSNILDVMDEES
Description: For Total internal reflection fluorescence (TIRF) microscopy, CHO cells were seeded in a glass bottom dish and transfected with 500 ng DNA. After 16 h of post-transfection, cells were serum starved by incubating in Opti-MEM serum-free media for 6 h. The images of lived CHO cells were recorded for 10 min before and after IP6 treatment. The TIRF images were acquired on a Nikon Eclipse Ti2 inverted microscope equipped with a Nikon 100 × 1.49 numerical aperture oil-immersion TIRF objective, a TIRF illuminator, a Perfect Focus system (PFS), and a motorized stage. The critical angle and the refractive index were set to 63° and 1.515, respectively ([53]). The samples were excited at 561 nm using an LU-N4 laser unit (Nikon, Tokyo, Japan) with solid-state lasers. Image acquisition was done using the Nikon NIS-Elements software. Live cell images were acquired at 1-min intervals for 10 min using an EMCCD camera, with an exposure time of 200 ms. The images were processed and analyzed using Fiji. Out-of-focus fluorescence in the acquired images is removed by deconvolution ([54]). […] The fluorescence intensity of each frame was quantified using “create spectrum jru V1” routine of Fiji. The half-life of fluorescence intensity at the plasma membrane was determined by fitting the fluorescence decay at indicated time points to a first-order kinetic equation using GraphPad Prism version 9.5.1.

BTK wild-type = BTK wild-type (Mus musculus, UniProt P35991); experiment: Immunofluorescence of Y551 phosphorylation in transiently transfected CHO cells; details: 500 μM IP6 for 1 h
BTK wild-type, sequence (P35991 whole entry): as the sequence (P35991 whole entry E41K) above, with K41E counted along it
Description: (§3) The IP6-mediated activation of BTK was determined by immunofluorescence and immunoblot in Chinese Hamster Ovary (CHO) cell line transiently transfected with BTK-mCherry cloned in pCDNA. […] Before activation, transfected cells were serum-starved for 6 h in opti-MEM, followed by incubation with 500 μM IP6 for 1 h in opti-MEM. For Immunoblot, cells were washed with ice-cold PBS and then incubated in RIPA buffer [10 mM Tris-Cl (pH 8.0), 140 mM NaCl, 1 mM EDTA, 0.1% SDS, and 1% Triton X-100] containing protease and phosphatase inhibitors (2 mM Benzamidine, 1 mM PMSF and 1 mM Sodium orthovanadate) for 10 min. […]
(§4) All images were acquired with the Leica SP8 confocal platform using an oil immersion HC PL APO CS2 63 × objective (NA 1.4) at 3.0X digital zoom. […] The level of BTK on the membrane or cytoplasm was determined from the intensity of mCherry measured at λex = 552 nm and λem = 576 to 651 nm, respectively. The Y551 phosphorylation was determined from the intensity of FITC tagged to the secondary antibody and measured at λex = 488 nm and λem = 505 to 531 nm. […] The intensity of mCherry or FITC at the membrane was determined by subtracting the respective intensities of ROI2 from ROI1. Whereas cytoplasmic intensity of mCherry or FITC was determined by subtracting the respective intensities of ROI3 from ROI2. […]

BTK^E41K/R28H = BTK^E41K/R28H (Mus musculus, UniProt P35991, E41K/R28H); experiment: as above; details: 500 μM IP6 for 1 h
BTK^E41K/R28H, sequence (P35991 whole entry R28H/E41K): as the sequence (P35991 whole entry E41K) above, with R28H counted along it
Description: as §3, §4

T1 sequence (Q3ZC95 4-170 E41K): as the sequence (Q3ZC95 4-170 E41K) above

SMILES	binding to PH-TH^E41K ([1]; 25 μM protein titrated with 137 μM ligand)	dimerization of PH-TH^E41K (PH-TH^E41K [2]; size-exclusion chromatography, in the presence of ligand)	∆H1 ([1]; Table S1)	∆H2 ([1]; Table S1)	Kd ([1]; Table S1, 20 °C, read-out: Kd2)	Kd ([1]; two-site independent binding model, strong site, 20 °C, read-out: Kd1)	Kd ([1]; two-site independent binding model, weak site, 20 °C, read-out: Kd2)	∆H1 (BTK PH-TH E41K/R28H; Table S1)	Kd (BTK PH-TH E41K/R28H; Table S1, read-out: Kd1)	Kd (BTK PH-TH E41K/R28H; one-site fit, weak binding to peripheral lipid binding site, read-out: Kd)	∆H1 (BTK PH-TH E41K/R49S; Table S1)	Kd (BTK PH-TH E41K/R49S; one-site fit, binding to canonical lipid binding site, read-out: Kd (Kd1))	hydrodynamic radius (PH-TH^E41K [3])	hydrodynamic radius [4]	ΔΔGunfolding (ΔGholo – ΔGapo) (PH-TH^E41K [5])	critical concentration at which BTK^E41K comes out of the membrane (BTK^E41K)	apparent size of migrating species in size-exclusion column (PH-TH^E41K [2]; in the presence of IP6 (300 μM))	activation (Y551 phosphorylation) of cytosolic fraction of BTK (BTK wild-type)	activation (Y551 phosphorylation) of BTK (BTK^E41K/R28H)
O=P(O)(O)O[C@@H]1[C@H](O)[C@H](O)[C@@H](OP(=O)(O)O)[C@H](OP(=O)(O)O)[C@H]1O [IP3]	does not bind	does not dimerize																	
O=P(O)(O)OC1C(OP(=O)(O)O)C(OP(=O)(O)O)C(OP(=O)(O)O)C(OP(=O)(O)O)C1OP(=O)(O)O (stereo not shown) [IP6, inositol hexakisphosphate]			-4.749 ± 0.159 kcal/mol	-5.098 ± 2.36 kcal/mol	1280 ± 366 nM	152 ± 18 nM	1300 ± 400 nM	-1.562 ± 1.008 kcal/mol	2420 ± 151 nM	2400 ± 150 nM	-4.16 ± 0.55 kcal/mol	622 ± 77 nM	3.14 ± 0.48 nm	2.18 ± 0.10 nm	1.49 ± 0.79 kcal/mol	0.5 mM	~44 kDa	activates	does not activate
